As a reminder, the IC50 is the concentration needed to halve the response being measured.

A short description of data set [1]: Cytotoxicity assay on J774 cells. The data set is classed as cell-based, murine. Conditions: mouse, J774 macrophage-like cells, pure compound (positive control), read-out: Cytotoxicity IC50 ± SD J774. How it is done: (§1) The cytotoxicity of the essential oil and extracts on WI-38 and J774 cells was evaluated as previously described from the same stock solutions [45].

Data set [2] is described as follows: Cytotoxicity assay on WI38 cells. The data set is classed as cell-based. Conditions: human, WI-38 normal fibroblast cells, pure compound (positive control), read-out: Cytotoxicity IC50 ± SD WI38. How it is done:
(§2) Trypanosoma brucei brucei (strain 427) bloodstream forms were cultured in vitro in HMI9 medium containing 10% heat-inactivated fetal bovine serum. Leishmania mexicana mexicana promastigotes (MHOM/BZ/84/BEL46) were cultivated in vitro in a semi-defined medium (SDM-79) supplemented with 15% heat-inactivated fetal bovine serum. The human normal fibroblast cell line, WI-38, was cultivated in vitro in DMEM medium containing 4 mM L-glutamine, 1 mM sodium pyruvate supplemented with 10% heat-inactivated fetal bovine serum and penicillin–streptomycin (100 UI/mL to 100 µg/mL). All cells were incubated in a humidified atmosphere with 5% CO2 at 37 °C except the Leishmania promastigotes which were incubated at 28 °C.
as §1

For data set [3], the system named is Leishmania mexicana mexicana promastigotes. The experiment in a line: In vitro test for antileishmanial activity. The settings on record: Lmm promastigotes, pure compound (positive control), read-out: Antiprotozoal assay IC50 ± SD Lmm. The class given is cell-based. As to the method: as §2
(§3) The in vitro test was performed as described previously. Pentamidine isethionate salt (a commercial antileishmanial drug) and suramine sodium salt (a commercial antitrypanosomal drug) were used as positive controls in all experiments with an initial concentration of 10 µg/mL. First, stock solutions of crude extracts and compounds were prepared in DMSO at 20 mg/mL (and 2 mg/mL for positive controls). The solutions were further diluted in medium to give 0.2 mg/mL stock solutions. Essential oil and extracts were tested in eight serial three-fold dilutions (final concentration range: 100–0.05 µg/mL) in 96-well microtiter plates. All tests were repeated three times in duplicate.

For data set [4], the system named is Trypanosoma brucei brucei (bloodstream forms). Description: In vitro test for antitrypanosomal activity. The data set is classed as cell-based. Conditions: Tbb bloodstream forms, pure compound (positive control), read-out: Antiprotozoal assay IC50 ± SD Tbb. As to the method: as §2, §3

In the case of `CC[C@@]1(O)C(=O)OCc2c1cc1n(c2=O)Cc2cc3ccccc3nc2-1` [Camptothecin], the figures for the IC50 in data set [1] and in data set [2] were 10 ± 1 nM and 31 ± 2 nM, respectively. Take `N=C(N)c1ccc(OCCCCCOc2ccc(C(=N)N)cc2)cc1` [Pentamidine]: in data set [3], the IC50 worked out at 70 ± 4 nM. As to `Cc1ccc(C(=O)Nc2ccc(S(=O)(=O)O)c3cc(S(=O)(=O)O)cc(S(=O)(=O)O)c23)cc1NC(=O)c1cccc(NC(=O)Nc2cccc(C(=O)Nc3cc(C(=O)Nc4ccc(S(=O)(=O)O)c5cc(S(=O)(=O)O)cc(S(=O)(=O)O)c45)ccc3C)c2)c1` [Suramine], the IC50 in data set [4] came out at 30 ± 4 nM.

(Values after article PMC9860869, “First Phytochemical Profiling and In-Vitro Antiprotozoal Activity of Essential Oil and Extract of Plagiochila porelloides” (Molecules, 2023).)
